Earlier results, collected in publication PMC4716540 (British Journal of Cancer, 2015).

System: haematological and solid tumours
Settings: early clinical trials; ref Zhou et al, 2012; cited from earlier work

| Structure (SMILES) | Visual disorders (blurred vision, flashes, delayed light/dark accommodation, photophobia) |
| --- | --- |
| CC1(C)CC(=O)c2c(C(F)(F)F)nn(-c3ccc(C(N)=O)c(N[C@H]4CC[C@H](OC(=O)CN)CC4)c3)c2C1 [SNX-5422] | associated with visual disorders |
| CO[C@H]1/C=C\C=C(/C)C(=O)NC2=CC(=O)C(NCCN(C)C)=C(C[C@@H](C)C[C@H](OC)[C@H](O)[C@@H](C)/C=C(\C)[C@@H]1OC(N)=O)C2=O [alvespimycin] | associated with visual disorders |
